Measured values from ChEMBL document CHEMBL5120865, “Exploration of 6-methyl-7-(Hetero)Aryl-7-Deazapurine ribonucleosides as antileishmanial agents” (Eur J Med Chem, 2022).
“And” between values parts separate entries of the source, which are not always exact repeats. Equal values may be shown once.

Key:
Leishmania infantum [1] = experiment: Antileishmanial activity against intracellular Leishmania infantum MHOM/MA(BE)/67 ITMAP263 amastigotes infected in Swiss mouse peritoneal macrophage assessed as inhibition of parasite growth measured after 5 days by geimsa staining based microscopic analysis; assay type: functional, organism-based; settings: MHOM/MA(BE)/67 ITMAP263, Peritoneal macrophage, 120 h
[2] = Cytotoxicity against Swiss mouse peritoneal macrophages assessed as reduction in cell viability measured after 5 days by microscopic analysis; assay type: toxicity, cell-based, Peritoneal macrophage; settings: time 5 day
Leishmania infantum [3] = experiment: (§1) Antileishmanial activity against sodium stibogluconate and potassium antimonyl tartrate resistant intracellular Leishmania infantum MHOM/FR/96/LEM3323-CI4 promastigotes infected in Swiss mouse peritoneal macrophages assessed as inhibition of parasite growth measured after 96 hrs by microscopic analysis; assay type: functional, organism-based; settings: MHOM/FR/96/LEM3323-CI4, Peritoneal macrophage
Leishmania infantum [4] = experiment: as §1, with “stibogluconate,” for “stibogluconate and”, “tartrate and MIL” for “tartrate”, “MHOM/FR/96/LEM3323-CI4 MIL5C13” for “MHOM/FR/96/LEM3323-CI4”; assay type: functional, organism-based; settings: MHOM/FR/96/LEM3323-CI4 MIL5C13, Peritoneal macrophage
Trypanosoma cruzi = experiment: Antitrypanosomal activity against nifurtimox-sensitive Tulahuen CL2 amastigotes expressing beta galactosidase infected in human MRC5 cells assessed as inhibition of parasite growth using chlorophenol red beta-D-galactopyranoside as substrate and measured after 7 days by spectrophotometric analysis; assay type: functional, organism-based; settings: Tulahuen CL2, MRC5, 168 h, read-out: EC50
[5] = Metabolic stability in golden hamster liver microsomes S9 fraction assessed as CYP450-mediated metabolism by measuring parent compound remaining measured after 60 mins in presence of NADPH; assay type: ADME, subcellular, Mesocricetus auratus; settings: read-out: Stability
[6] = Metabolic stability in mouse liver microsomes S9 fraction assessed as UGT-mediated metabolism by measuring parent compound remaining measured after 30 mins in presence of NADPH; assay type: ADME, subcellular; settings: read-out: Stability
[7] = Metabolic stability in mouse liver microsomes S9 fraction assessed as CYP450-mediated metabolism by measuring parent compound remaining measured after 30 mins in presence of NADPH; assay type: ADME, subcellular; settings: read-out: Stability
[8] = Selectivity index, ratio of CC50 for cytotoxicity against human MRC5 cells to EC50 for Trypanosoma cruzi Tulahuen CL2 amastigotes expressing beta galactosidase infected in human MRC5 cells; assay type: toxicity, cell-based; settings: read-out: Ratio CC50/EC50
[9] = Metabolic stability in golden hamster liver microsomes S9 fraction assessed as UGT-mediated metabolism by measuring parent compound remaining measured after 15 mins in presence of NADPH; assay type: ADME, subcellular, Mesocricetus auratus; settings: read-out: Stability
[10] = Metabolic stability in golden hamster liver microsomes S9 fraction assessed as UGT-mediated metabolism by measuring parent compound remaining measured after 30 mins in presence of NADPH; assay type: ADME, subcellular, Mesocricetus auratus; settings: read-out: Stability
[11] = Metabolic stability in golden hamster liver microsomes S9 fraction assessed as UGT-mediated metabolism by measuring parent compound remaining measured after 60 mins in presence of NADPH; assay type: ADME, subcellular, Mesocricetus auratus; settings: read-out: Stability
Cytochrome P450 = Cytochrome P450 (Homo sapiens, UniProt P04798+P05177+P05181+P08684+P10632+P10635+P11509+P11712+P13584+P20813+P20815+P20853+P24462+P24903+P33260+P33261+P51589+P78329+P98187+Q02928+Q08477+Q16678+Q16696+Q5TCH4+Q6VVX0+Q7Z449+Q8TAV3+Q96SQ9+Q9HB55); experiment: Metabolic stability in human liver microsomes S9 fraction assessed as CYP450-mediated metabolism by measuring parent compound remaining measured after 30 mins in presence of NADPH; assay type: ADME, subcellular; settings: read-out: Stability
[12] = target: T1, UDP-glucuronosyltransferases (UGTs) (Homo sapiens, UniProt O60656+O75310+O75795+P06133+P0DTE4+P0DTE5+P16662+P19224+P22309+P22310+P35503+P35504+P36537+P54855+Q6UWM9+Q9BY64+Q9HAW7+Q9HAW8+Q9HAW9); experiment: Metabolic stability in human liver microsomes S9 fraction assessed as UGT-mediated metabolism by measuring parent compound remaining measured after 30 mins in presence of NADPH; assay type: ADME, subcellular; settings: read-out: Stability
[13] = target: T1, UDP-glucuronosyltransferases (UGTs); experiment: Metabolic stability in human liver microsomes S9 fraction assessed as UGT-mediated metabolism by measuring parent compound remaining measured after 60 mins in presence of NADPH; assay type: ADME, subcellular; settings: read-out: Stability
Leishmania infantum [14] = experiment: Antileishmanial activity against intracellular Leishmania infantum MHOM/MA(BE)/67 amastigotes infected in golden hamster assessed as reduction of amastigote burdens in liver at 50 mg/kg, po SID for 10 days by geimsa staining based microscopic analysis; assay type: functional; set-up: scale not given: the % may be the effect or the level left; settings: time 10 day
Leishmania infantum [15] = experiment: Antileishmanial activity against intracellular Leishmania infantum MHOM/MA(BE)/67 amastigotes infected in golden hamster assessed as reduction of amastigote burdens in bone marrow at 50 mg/kg, po SID for 10 days by geimsa staining based microscopic analysis; assay type: functional; set-up: scale not given: the % may be the effect or the level left; settings: time 10 day
[16] = Tmax in golden hamster infected with Leishmania infantum MHOM/MA(BE)/67 amastigotes at 50 mg/kg, po SID and measured after 24 hrs by LC-MS/MS analysis; assay type: ADME, organism-based, Mesocricetus auratus; settings: in vivo
[17] = Cmax in golden hamster infected with Leishmania infantum MHOM/MA(BE)/67 amastigotes at 50 mg/kg, po SID and measured after 24 hrs by LC-MS/MS analysis; assay type: ADME, organism-based, Mesocricetus auratus; set-up: time 24 hrs, dose 50 mg/kg, route po; settings: in vivo
[18] = AUC (0 to 24) in golden hamster infected with Leishmania infantum MHOM/MA(BE)/67 amastigotes at 50 mg/kg, po SID and measured after 24 hrs by LC-MS/MS analysis; assay type: ADME, organism-based, Mesocricetus auratus; set-up: time 24 hrs, dose 50 mg/kg, route po; settings: in vivo
[19] = Volume of distribution in golden hamster infected with Leishmania infantum MHOM/MA(BE)/67 amastigotes at 50 mg/kg, po SID and measured after 24 hrs by LC-MS/MS analysis; assay type: ADME, organism-based, Mesocricetus auratus; settings: in vivo
[20] = Tmax in golden hamster infected with Leishmania infantum MHOM/MA(BE)/67 amastigotes at 50 mg/kg, po SID and measured after 10 days by LC-MS/MS analysis; assay type: ADME, organism-based, Mesocricetus auratus; settings: in vivo, time 10 day
[21] = Cmax in golden hamster infected with Leishmania infantum MHOM/MA(BE)/67 amastigotes at 50 mg/kg, po SID and measured after 10 days by LC-MS/MS analysis; assay type: ADME, organism-based, Mesocricetus auratus; set-up: dose 50 mg/kg, time 10 day, route po; settings: in vivo
[22] = Half life in golden hamster infected with Leishmania infantum MHOM/MA(BE)/67 amastigotes at 50 mg/kg, po SID and measured after 10 days by LC-MS/MS analysis; assay type: ADME, organism-based, Mesocricetus auratus; settings: in vivo, time 10 day
[23] = AUC (0 to 8) in golden hamster infected with Leishmania infantum MHOM/MA(BE)/67 amastigotes at 50 mg/kg, po SID and measured after 10 days by LC-MS/MS analysis; assay type: ADME, organism-based, Mesocricetus auratus; set-up: dose 50 mg/kg, time 10 day, route po; settings: in vivo
[24] = AUC (0 to 24) in golden hamster infected with Leishmania infantum MHOM/MA(BE)/67 amastigotes at 50 mg/kg, po SID and measured after 10 days by LC-MS/MS analysis; assay type: ADME, organism-based, Mesocricetus auratus; set-up: dose 50 mg/kg, time 10 day, route po; settings: in vivo
[25] = Clearance in golden hamster infected with Leishmania infantum MHOM/MA(BE)/67 amastigotes at 50 mg/kg, po SID and measured after 10 days by LC-MS/MS analysis; assay type: ADME, organism-based, Mesocricetus auratus; settings: in vivo, time 10 day
[26] = Volume of distribution in golden hamster infected with Leishmania infantum MHOM/MA(BE)/67 amastigotes at 50 mg/kg, po SID and measured after 10 days by LC-MS/MS analysis; assay type: ADME, organism-based, Mesocricetus auratus; settings: in vivo, 240 h, time 10 day
[27] = Toxicity in golden hamster infected with Leishmania infantum MHOM/MA(BE)/67 amastigotes assessed as body weight loss at 50 mg/kg, po SID and administered for 10 days and measured twice weekly; assay type: organism-based, Mesocricetus auratus; settings: in vivo, 240 h, time 10 day

Structure (SMILES): Cc1ncnc2c1c(-c1cc(Cl)ccn1)cn2[C@@H]1O[C@H](CO)[C@@H](O)[C@H]1O
- EC50 (Leishmania infantum [1]): 680 nM
- CC50 at 120 h [2]: > 64000 nM
- EC50 (Leishmania infantum [3]): 2210 nM
- EC50 (Leishmania infantum [4]): 730 nM
- EC50 (Trypanosoma cruzi): 830 nM
- remaining at 1 h [5]: 87%
- remaining at 0.5 h [6]: 102%
- remaining at 0.5 h [7]: 86%
- selectivity ratio [8]: > 77
- remaining at 0.25 h [9]: 98%
- remaining at 0.5 h [10]: 92%
- remaining at 1 h [11]: 89%
- remaining at 0.5 h (Cytochrome P450): 86%
- remaining at 0.5 h [12]: 96%
- remaining at 1 h [13]: 98%
- Activity (Leishmania infantum [14]): 52.7%
- Activity (Leishmania infantum [15]): 30.8%
- Tmax [16]: 30 min
- Cmax [17]: 1100 ng/mL and 2.9 µM
- AUC at 24 h [18]: 2080 ng·h/mL
- Vd [19]: 13 L/kg
- Tmax [20]: 30 min
- Cmax [21]: 1210 ng/mL and 3.2 µM
- half-life [22]: 102 min
- AUC at 240 h [23]: 2840 ng·h/mL
- AUC at 240 h [24]: 3380 ng·h/mL
- CL/F [25]: 34.7 mL/min/kg
- Vd [26]: 5.14 L/kg
- Activity [27]: Non-Toxic
